# Source: PMC4249762 (Nature cell biology, 2014)
# How the values were obtained:
# Assay type in all cases: biochemical
# cathepsin B = cathepsin B (Homo sapiens, UniProt P07858); assay: enzyme selectivity assay with peptide substrate
# cathepsin S = cathepsin S (Homo sapiens, UniProt P25774); assay: fluorimetric hydrolysis of Z-Leu-Arg-AMC by purified enzyme, pH […]
# mouse cathepsin S = mouse cathepsin S (Mus musculus, UniProt O70370); assay: as above
# Sequence of cathepsin S (P25774 115-331): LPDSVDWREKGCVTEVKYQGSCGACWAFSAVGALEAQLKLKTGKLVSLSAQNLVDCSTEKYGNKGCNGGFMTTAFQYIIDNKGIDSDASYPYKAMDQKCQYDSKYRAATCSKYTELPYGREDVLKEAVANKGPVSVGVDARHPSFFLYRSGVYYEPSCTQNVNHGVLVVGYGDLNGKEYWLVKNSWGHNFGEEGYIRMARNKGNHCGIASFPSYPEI
substance,measurement,setting,value
VBY-999,Ki,cathepsin B,700 nM
same,Ki,cathepsin S,0.29 nM
same,Ki,mouse cathepsin S,0.69 nM
